Measured values from article PMC8651714 (Scientific Reports, 2021).
Like-named read-outs stand apart in the source and are kept apart here.

Tests used:
rat brain MAO-A = details: cited from earlier work
[1] = biological target: human dopamine D1 receptor (Homo sapiens, UniProt P21728); assay: cell-based
[2] = biological target: T1, human dopamine D3 receptor (Homo sapiens, UniProt P35462); details: 100 µM
[3] = biological target: T2, human vasopressin V1A receptor (Homo sapiens, UniProt P37288); details: agonist binding, [3H]AVP, 100 µM, duplicate
rat brain MAO-B = details: cited from earlier work
human MAO-A (hMAO-A) = details: cited from earlier work
[4] = biological target: T2, human vasopressin V1A receptor; assay: cell-based
hMAO-B = biological target: T3, hMAO-B (Homo sapiens, UniProt P27338); assay: biochemical; details: for Ki: inhibition constant from secondary plots
T3 sequence (P27338 1-520): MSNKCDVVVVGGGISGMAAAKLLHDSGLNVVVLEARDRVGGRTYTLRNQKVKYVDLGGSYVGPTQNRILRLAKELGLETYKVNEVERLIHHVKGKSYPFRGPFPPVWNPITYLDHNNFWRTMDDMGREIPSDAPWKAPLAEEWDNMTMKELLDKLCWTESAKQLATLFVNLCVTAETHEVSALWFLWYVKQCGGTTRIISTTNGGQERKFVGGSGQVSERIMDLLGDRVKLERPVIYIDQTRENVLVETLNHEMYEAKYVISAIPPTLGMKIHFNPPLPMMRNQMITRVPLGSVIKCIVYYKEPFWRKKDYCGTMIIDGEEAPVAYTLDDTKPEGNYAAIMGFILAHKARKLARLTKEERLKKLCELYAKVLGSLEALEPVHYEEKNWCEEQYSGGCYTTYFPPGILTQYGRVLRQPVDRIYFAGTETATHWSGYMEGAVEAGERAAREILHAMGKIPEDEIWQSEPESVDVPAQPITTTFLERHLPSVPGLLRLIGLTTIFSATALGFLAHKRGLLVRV

[5] = biological target: T4, human dopamine D4 receptor (Homo sapiens, UniProt P21917); assay: Radioligand binding assay, [3H]methylspiperone, CHO-D4R membranes; details: duplicate, read-out: % Inhibition of control-specific binding
T4 construct: host or cells: CHO
T4 sequence (P21917 1-419): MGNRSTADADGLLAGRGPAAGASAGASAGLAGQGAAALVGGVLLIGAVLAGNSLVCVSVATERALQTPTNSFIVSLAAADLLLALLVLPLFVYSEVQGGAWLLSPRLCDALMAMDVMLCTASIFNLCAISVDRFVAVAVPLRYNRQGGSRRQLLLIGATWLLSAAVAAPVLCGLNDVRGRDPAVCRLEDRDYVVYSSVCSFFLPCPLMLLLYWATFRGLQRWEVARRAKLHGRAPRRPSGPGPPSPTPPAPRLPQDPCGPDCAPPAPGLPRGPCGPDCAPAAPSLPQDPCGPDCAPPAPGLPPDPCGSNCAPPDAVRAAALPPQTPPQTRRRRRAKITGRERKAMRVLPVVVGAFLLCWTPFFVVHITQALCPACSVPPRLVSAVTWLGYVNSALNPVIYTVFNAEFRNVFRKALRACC

human MAO-B (hMAO-B) = details: cited from earlier work
hMAO-A = biological target: T5, hMAO-A (Homo sapiens, UniProt P21397); assay: Recombinant hMAO-A inhibitory assay (luminescent) and enzyme kinetics; type: biochemical
T5 construct: purchased Sigma Aldrich
T5 sequence (P21397 1-527): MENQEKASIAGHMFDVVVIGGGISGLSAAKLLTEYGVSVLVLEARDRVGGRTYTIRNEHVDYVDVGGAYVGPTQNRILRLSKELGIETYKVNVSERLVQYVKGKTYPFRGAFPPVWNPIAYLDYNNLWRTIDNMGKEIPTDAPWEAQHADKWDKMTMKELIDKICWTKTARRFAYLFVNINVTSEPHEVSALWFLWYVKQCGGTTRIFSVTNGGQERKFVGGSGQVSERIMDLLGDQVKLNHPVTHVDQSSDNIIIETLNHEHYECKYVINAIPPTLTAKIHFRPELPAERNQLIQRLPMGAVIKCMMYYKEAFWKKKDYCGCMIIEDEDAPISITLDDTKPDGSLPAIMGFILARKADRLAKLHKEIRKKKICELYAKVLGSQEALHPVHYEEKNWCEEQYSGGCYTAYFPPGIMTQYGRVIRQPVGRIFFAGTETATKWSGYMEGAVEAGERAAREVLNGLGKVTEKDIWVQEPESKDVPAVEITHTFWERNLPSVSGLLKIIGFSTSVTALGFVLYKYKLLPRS

[6] = biological target: T1, human dopamine D3 receptor; assay: cell-based
MAO from bovine serum = system: MAO from bovine serum; parameters: method as in PMID 1913999; details: read-out: Concentration for 50% inhibition of MAO activity; cited from earlier work
[7] = biological target: T6, human dopamine D2L receptor (Homo sapiens, UniProt P14416); assay: Radioligand binding assay, [3H]methylspiperone, HEK-D2LR membranes; details: duplicate
T6 construct: host or cells: HEK-293

[8] = ILG isolated from Colvillea racemosa

O=C(/C=C/c1ccc(O)cc1)c1ccc(O)cc1O [Isoliquiritigenin, 4,2′,4′-Trihydroxychalcone]
IC50 (rat brain MAO-A; ILG isolated from Sinofranchetia chinensis, rat brain, read-out: rMAO-A IC50): 13.9 µM
rMAO-A inhibition type (rat brain MAO-A; previous study): non-competitive inhibition
IC50 [1]: 68.9 ± 0.2 µM
% Stimulation (percentage of control agonist response) [2]: 92.7 ± 0.5%
% Inhibition of control-specific binding [3]: 60.8%
IC50 (rat brain MAO-B; ILG isolated from Sinofranchetia chinensis, rat brain, read-out: rMAO-B IC50): 47.2 µM
rMAO-B inhibition type (rat brain MAO-B; previous study): mixed inhibition
IC50 (human MAO-A (hMAO-A); [8]): 22.7 ± 1.84 µM
IC50 (human MAO-A (hMAO-A); earlier report): 41.5 µM
EC50 [4]: 78.6 ± 2.7 µM
IC50 (hMAO-B): 0.33 ± 0.02 µM
Ki (hMAO-B; hMAO-B Kic): 0.094 µM
Ki (hMAO-B; hMAO-B Kiu): 0.71 ± 0.01 µM
inhibition at 100 µM [5]: 44.8%
IC50 (human MAO-B (hMAO-B); [8]): 0.51 ± 0.01 µM
IC50 (human MAO-B (hMAO-B); earlier report): 21.8 µM
Ki (hMAO-A; inhibition constant from secondary plots): 0.16 µM
IC50 (hMAO-A; recombinant hMAO-A, mean ± standard deviation of triplicate assays): 0.68 ± 0.03 µM
EC50 [6]: 62.3 ± 0.2 µM
IC50 (MAO from bovine serum): > 200 µM
% Inhibition of control-specific binding ([7]; 100 µM): no binding affinity
inhibition at 100 µM ([7]; read-out: % Inhibition of control-specific binding): 21.3%

O=C1C[C@@H](c2ccc(O)cc2)Oc2cc(O)ccc21 [LG, reference compound]
IC50 (human MAO-A (hMAO-A)): 0.27 ± 0.04 µM
IC50 (human MAO-B (hMAO-B)): 0.098 µM

COc1cc(O)ccc1C(=O)/C=C/c1ccc(O)cc1 [3-Deoxysappanchalcone, 2′-methoxy-4′,4″-dihydroxychalcone, reference compound]
IC50 (human MAO-A (hMAO-A)): 10.1 µM
IC50 (human MAO-B (hMAO-B)): 0.68 µM
